Bridge positions count the residues as written; N and C are the ends. Square brackets hold non-standard residues; d marks the D form. Peptide text beside a SMILES is read from it. * marks the point of attachment. Tyr(3-NO2) = N[C@@H](Cc1ccc(O)c([N+](=O)[O-])c1)C(=O)O; dPhe(3-CF3) = N[C@H](Cc1cccc(C(F)(F)F)c1)C(=O)O; Phe(4-COOH) = N[C@@H](Cc1ccc(C(=O)O)cc1)C(=O)O; Bip = N[C@@H](Cc1ccc(-c2ccccc2)cc1)C(=O)O; pY = N[C@@H](Cc1ccc(OP(=O)(O)O)cc1)C(=O)O; Phe(3-Cl) = N[C@@H](Cc1cccc(Cl)c1)C(=O)O; Phe(3-Me) = Cc1cccc(C[C@H](N)C(=O)O)c1; mTyr = N[C@@H](Cc1cccc(O)c1)C(=O)O; 3Pal = N[C@@H](Cc1cccnc1)C(=O)O; 4Pal = N[C@@H](Cc1ccncc1)C(=O)O; Cha = N[C@@H](CC1CCCCC1)C(=O)O; Pip = O=C(O)[C@@H]1CCCCN1; dDab = NCC[C@@H](N)C(=O)O; Carboxymethyl = O=C(O)C*; NMeA = CN[C@@H](C)C(=O)O; Dab = NCC[C@H](N)C(=O)O; Dap = NC[C@H](N)C(=O)O; Piv = CC(C)(C)C(=O)*; Bn = c1ccc(C*)cc1
target: T1, PE-labeled human PD-L1-Ig binding to Jurkat cell line over-expressing human PD-1 (Jurkat-PD-1) (Homo sapiens, UniProt Q15116); assay: Jurkat-PD-1 Cell Binding High-Content Screening Assay (CBA): Method 1; conditions: Jurkat HPDL1 PD1 IC50 (uM) (Method 1), Jurkat-hPD-1 cells, PE-labeled PD-L1-Ig 20 nM final
T1 construct: expressed in transfected cells; host or cells: Jurkat
T1 sequence (Q15116 25-288): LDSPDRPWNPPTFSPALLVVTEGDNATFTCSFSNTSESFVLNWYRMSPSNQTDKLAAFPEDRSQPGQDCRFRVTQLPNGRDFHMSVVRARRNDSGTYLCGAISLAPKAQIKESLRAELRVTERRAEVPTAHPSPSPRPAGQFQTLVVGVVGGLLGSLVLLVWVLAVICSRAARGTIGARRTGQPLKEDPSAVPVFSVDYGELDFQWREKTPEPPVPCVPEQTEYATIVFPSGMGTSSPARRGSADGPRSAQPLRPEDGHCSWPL

Row | Structure (SMILES) | IC50
1 | CC(C)C[C@@H]1NC(=O)[C@H](Cc2c[nH]c3ccccc23)NC(=O)[C@H](CC(=O)O)NC(=O)[C@H](Cc2ccc(OP(=O)(O)O)cc2)NC(=O)[C@H](Cc2ccccc2)NC(=O)CSC[C@@H](C(=O)N[C@@H](C)C(N)=O)NC(=O)[C@H](CO)NC(=O)[C@H](C(C)C)NC(=O)[C@H](CC(C)C)NC(=O)[C@H](CC(N)=O)NC(=O)[C@@H](C)NC(=O)[C@H](C)N(C)C(=O)[C@H](C(C)C)NC(=O)[C@H](Cc2ccc(-c3ccccc3)cc2)NC1=O [Compound 1756] ({CH2CO}-F[pY]DWL[Bip]V[NMeA][dA]NLVSCA-NH2; thioether N-14) | 0.03 µM
2 | CC(C)C[C@@H]1NC(=O)[C@H](Cc2c[nH]c3ccccc23)NC(=O)[C@H](CC(=O)O)NC(=O)[C@H](Cc2ccc(OCC(=O)O)cc2)NC(=O)[C@H](Cc2ccccc2)NC(=O)CSC[C@@H](C(=O)N[C@@H](C)C(N)=O)NC(=O)[C@H](CO)NC(=O)[C@H](C(C)C)NC(=O)[C@H](CC(C)C)NC(=O)[C@H](CC(N)=O)NC(=O)[C@@H](CC(C)C)NC(=O)[C@H](C)N(C)C(=O)[C@H](C(C)C)NC(=O)[C@H](Cc2ccc(OCc3ccccc3)cc2)NC1=O [Compound 2028] ({CH2CO}-FY(Carboxymethyl)DWLY(Bn)V[NMeA][dL]NLVSCA-NH2; thioether N-14) | 0.48 µM

same assay, conditions: Jurkat-hPD-1 cells, PE-labeled PD-L1-Ig 20 nM final; read-out: Jurkat HPDL1 PD1 IC50 (uM) (Method 1)

Row | Structure (SMILES) | IC50
3 | CC(C)C[C@@H]1NC(=O)[C@H](CCCNC(=N)N)NC(=O)[C@@H](CC(C)C)NC(=O)[C@H](C)N(C)C(=O)[C@H](CCCNC(=N)N)NC(=O)[C@H](Cc2ccc(-c3ccccc3)cc2)NC(=O)[C@H](C(C)C)NC(=O)[C@H](Cc2c[nH]c3ccccc23)NC(=O)[C@H](CC(=O)O)NC(=O)[C@H](Cc2ccc(OCC(=O)O)cc2)NC(=O)[C@H](Cc2cccnc2)NC(=O)CSC[C@@H](C(=O)N[C@@H](C)C(N)=O)NC(=O)[C@H]([C@@H](C)O)NC(=O)[C@H](C(C)C)NC1=O [Compound 1110] ({CH2CO}-[3Pal]Y(Carboxymethyl)DWV[Bip]R[NMeA][dL]RLVTCA-NH2; thioether N-14) | 0.04 µM
4 | CC[C@H](C)[C@@H]1NC(=O)[C@H](Cc2ccc(-c3ccccc3)cc2)NC(=O)[C@H](C(C)C)NC(=O)[C@H](Cc2c[nH]c3ccccc23)NC(=O)[C@H](CC(=O)O)NC(=O)[C@H](Cc2ccc(O)c([N+](=O)[O-])c2)NC(=O)[C@H](CN)NC(=O)CSC[C@@H](C(=O)N[C@@H](C)C(N)=O)NC(=O)[C@H]([C@@H](C)O)NC(=O)[C@H](C(C)C)NC(=O)[C@H](CC(C)C)NC(=O)[C@H](CCN)NC(=O)[C@@H](CC(C)C)NC(=O)[C@H](C)N(C)C1=O [Compound 1409] ({CH2CO}-[Dap][Tyr(3-NO2)]DWV[Bip]I[NMeA][dL][Dab]LVTCA-NH2; thioether N-14) | 0.04 µM
5 | Cc1cccc(C[C@@H]2NC(=O)[C@H](CC(=O)O)NC(=O)[C@H](Cc3cccnc3)NC(=O)[C@H](CN)NC(=O)CSC[C@@H](C(=O)N[C@@H](C)C(N)=O)NC(=O)[C@H](CO)NC(=O)[C@H](C(C)C)NC(=O)[C@H](CC(C)C)NC(=O)[C@H](CC(N)=O)NC(=O)[C@@H](C)NC(=O)[C@H](C)N(C)C(=O)[C@H](C(C)C)NC(=O)[C@H](Cc3ccc(-c4ccccc4)cc3)NC(=O)[C@H](CC(C)C)NC2=O)c1 [Compound 1584] ({CH2CO}-[Dap][3Pal]D[Phe(3-Me)]L[Bip]V[NMeA][dA]NLVSCA-NH2; thioether N-14) | 0.02 µM
6 | CC(C)C[C@@H]1NC(=O)[C@H](CCCNC(=N)N)NC(=O)[C@@H](Cc2cccc(C(F)(F)F)c2)NC(=O)[C@H](C)N(C)C(=O)[C@H](CCCNC(=N)N)NC(=O)[C@H](Cc2ccc(-c3ccccc3)cc2)NC(=O)[C@H](C(C)C)NC(=O)[C@H](Cc2c[nH]c3ccccc23)NC(=O)[C@H](CC(=O)O)NC(=O)[C@H](Cc2ccc(O)cc2)NC(=O)[C@H](Cc2ccccc2)NC(=O)CSC[C@@H](C(=O)N[C@@H](C)C(N)=O)NC(=O)[C@H]([C@@H](C)O)NC(=O)[C@H](C(C)C)NC1=O [Compound 1075] ({CH2CO}-FYDWV[Bip]R[NMeA][dPhe(3-CF3)]RLVTCA-NH2; thioether N-14) | 0.55 µM
7 | CC(C)C[C@@H]1NC(=O)[C@H](C)NC(=O)[C@@H](C)NC(=O)[C@H](C)N(C)C(=O)[C@H](CCC(=O)O)NC(=O)[C@H](Cc2ccc(-c3ccccc3)cc2)NC(=O)[C@H](CC(C)C)NC(=O)[C@H](Cc2c[nH]c3ccccc23)NC(=O)[C@H](CC(=O)O)NC(=O)[C@H](Cc2ccc(O)cc2)NC(=O)[C@H](Cc2ccccc2)NC(=O)CSC[C@@H](C(=O)N[C@@H](C)C(N)=O)NC(=O)[C@H](CO)NC(=O)[C@H](C(C)C)NC1=O [Compound 1785] ({CH2CO}-FYDWL[Bip]E[NMeA][dA]ALVSCA-NH2; thioether N-14) | 0.09 µM
8 | CC[C@H](C)[C@@H]1NC(=O)[C@H](Cc2ccc(-c3ccccc3)cc2)NC(=O)[C@H](CC(C)C)NC(=O)[C@H](Cc2c[nH]c3ccccc23)NC(=O)[C@H](CC(=O)O)NC(=O)[C@H](Cc2ccc(C(=O)O)cc2)NC(=O)[C@H](Cc2ccc(OCC(=O)O)cc2)NC(=O)CSC[C@@H](C(N)=O)NC(=O)[C@H](CO)NC(=O)[C@H](C(C)C)NC(=O)[C@H](CC2CCCCC2)NC(=O)[C@H](CCN)NC(=O)[C@@H](CC(C)C)NC(=O)[C@H](C)N(C)C1=O [Compound 1635] ({CH2CO}-Y(Carboxymethyl)[Phe(4-COOH)]DWL[Bip]I[NMeA][dL][Dab][Cha]VSC-NH2; thioether N-14) | 0.01 µM
9 | Cc1cccc(C[C@@H]2NC(=O)[C@H](CC(=O)O)NC(=O)[C@H](Cc3ccc(OCC(=O)O)cc3)NC(=O)[C@H](Cc3ccncc3)NC(=O)CSC[C@@H](C(=O)N[C@@H](CCN)C(N)=O)NC(=O)[C@H]([C@@H](C)O)NC(=O)[C@H](C(C)C)NC(=O)[C@H](CC3CCCCC3)NC(=O)[C@H](CCNC(=O)C(C)(C)C)NC(=O)[C@@H](CC(C)C)NC(=O)[C@H](C)N(C)C(=O)[C@H](Cc3ccc(OCC(=O)O)cc3)NC(=O)[C@H](Cc3ccc(-c4ccccc4)cc3)NC(=O)[C@H](Cc3ccc(OCC(=O)O)cc3)NC2=O)c1 [Compound 1865] ({CH2CO}-[4Pal]Y(Carboxymethyl)D[Phe(3-Me)]Y(Carboxymethyl)[Bip]Y(Carboxymethyl)[NMeA][dL][Dab](Piv)[Cha]VTC[Dab]-NH2; thioether N-14) | 0.02 µM
10 | CC(C)C[C@@H]1NC(=O)[C@H](CCN)NC(=O)[C@@H](CC(C)C)NC(=O)[C@H](C)N(C)C(=O)[C@H](C(C)C)NC(=O)[C@H](Cc2ccc(-c3ccccc3)cc2)NC(=O)[C@H](C(C)C)NC(=O)[C@H](Cc2c[nH]c3ccccc23)NC(=O)[C@H](CC(=O)O)NC(=O)[C@H](Cc2cccc(O)c2)NC(=O)[C@H](CC(N)=O)NC(=O)CSC[C@@H](C(=O)N[C@@H](C)C(N)=O)NC(=O)[C@H]([C@@H](C)O)NC(=O)[C@H](C(C)C)NC1=O [Compound 1384] ({CH2CO}-N[mTyr]DWV[Bip]V[NMeA][dL][Dab]LVTCA-NH2; thioether N-14) | 0.02 µM
11 | Cc1cccc(C[C@@H]2NC(=O)[C@H](CC(=O)O)NC(=O)[C@H](Cc3ccc(OCC(=O)O)cc3)NC(=O)[C@H](CN)NC(=O)CSC[C@@H](C(=O)N[C@@H](CCN)C(N)=O)NC(=O)[C@@H](CCN)NC(=O)[C@H](C(C)C)NC(=O)[C@H](CC3CCCCC3)NC(=O)[C@H](CCN)NC(=O)[C@@H](CC(C)C)NC(=O)[C@H](C)N(C)C(=O)[C@H](Cc3ccc(O)cc3)NC(=O)[C@H](Cc3ccc(-c4ccccc4)cc3)NC(=O)[C@H](Cc3ccc(O)cc3)NC2=O)c1 [Compound 1873] ({CH2CO}-[Dap]Y(Carboxymethyl)D[Phe(3-Me)]Y[Bip]Y[NMeA][dL][Dab][Cha]V[dDab]C[Dab]-NH2; thioether N-14) | 0.03 µM
12 | Cc1cccc(C[C@@H]2NC(=O)[C@H](CC(=O)O)NC(=O)[C@H](Cc3ccc(C(=O)O)cc3)NC(=O)[C@H](Cc3ccc(OCC(=O)O)cc3)NC(=O)CSC[C@@H](C(N)=O)NC(=O)[C@H](CO)NC(=O)[C@H](C(C)C)NC(=O)[C@H](CC(C)C)NC(=O)[C@H](CC(N)=O)NC(=O)[C@@H](CC(C)C)NC(=O)[C@H](C)N(C)C(=O)[C@H](C(C)C)NC(=O)[C@H](Cc3ccc(-c4ccccc4)cc3)NC(=O)[C@H](CC(C)C)NC2=O)c1 [Compound 1596] ({CH2CO}-Y(Carboxymethyl)[Phe(4-COOH)]D[Phe(3-Me)]L[Bip]V[NMeA][dL]NLVSC-NH2; thioether N-14) | 0.02 µM
13 | CC(C)C[C@@H]1NC(=O)[C@H](CCCNC(=N)N)NC(=O)[C@@H](Cc2ccccc2)NC(=O)[C@H](C)N(C)C(=O)[C@H](CCCNC(=N)N)NC(=O)[C@H](Cc2ccc(-c3ccccc3)cc2)NC(=O)[C@H](C(C)C)NC(=O)[C@H](Cc2c[nH]c3ccccc23)NC(=O)[C@H](CC(=O)O)NC(=O)[C@H](Cc2ccc(O)cc2)NC(=O)[C@H](Cc2cnc[nH]2)NC(=O)CSC[C@@H](C(=O)NCC(N)=O)NC(=O)[C@H](CO)NC(=O)[C@H](C(C)C)NC1=O [Compound 1031] ({CH2CO}-HYDWV[Bip]R[NMeA][dF]RLVSCG-NH2; thioether N-14) | 0.09 µM
14 | CC(C)C[C@@H]1NC(=O)[C@H](CCN)NC(=O)[C@@H](CC(C)C)NC(=O)[C@@H]2CCCCN2C(=O)[C@H](C(C)C)NC(=O)[C@H](Cc2ccc(-c3ccccc3)cc2)NC(=O)[C@H](C(C)C)NC(=O)[C@H](Cc2c[nH]c3ccccc23)NC(=O)[C@H](CC(=O)O)NC(=O)[C@H](Cc2ccc(O)cc2)NC(=O)[C@H](CC(N)=O)NC(=O)CSC[C@@H](C(=O)N[C@@H](C)C(N)=O)NC(=O)[C@H]([C@@H](C)O)NC(=O)[C@H](C(C)C)NC1=O [Compound 1298] ({CH2CO}-NYDWV[Bip]V[Pip][dL][Dab]LVTCA-NH2; thioether N-14) | 0.03 µM
15 | CC(C)C[C@@H]1NC(=O)[C@H](CCN)NC(=O)[C@@H](CC(C)C)NC(=O)[C@H](C)N(C)C(=O)[C@H](Cc2cnc[nH]2)NC(=O)[C@H](Cc2ccc(-c3ccccc3)cc2)NC(=O)[C@H](C(C)C)NC(=O)[C@H](Cc2c[nH]c3ccccc23)NC(=O)[C@H](CC(=O)O)NC(=O)[C@H](Cc2cccc(Cl)c2)NC(=O)[C@H](CN)NC(=O)CSC[C@@H](C(=O)N[C@@H](C)C(N)=O)NC(=O)[C@H]([C@@H](C)O)NC(=O)[C@H](C(C)C)NC1=O [Compound 1440] ({CH2CO}-[Dap][Phe(3-Cl)]DWV[Bip]H[NMeA][dL][Dab]LVTCA-NH2; thioether N-14) | 0.19 µM
